Calls of active or inactive are those of the source.
How the values were obtained:
[1] = system: HEK293; assay: EBV LMP1 TES2 canonical NF-kB signalling blockers – cell-based, HEK293, luciferase, cherry-pick, dose response (AID 588343); format: functional; settings: Homo sapiens
[2] = molecular target: Latent membrane protein 1 (Human herpesvirus 4 (strain B95-8), UniProt P03230); assay: LMP1 TES1 pathway selectivity over dsRED control – imaging, HEK293T, dual-color eGFP/dsRED, cherry-picks, selectivity assay for LMP1 NF-kB inhibitor project, dose response (AID 588398); format: functional, cell-based
[3] = molecular target: T1, Corticotropin-releasing factor receptor 2/Corticotropin-releasing factor-binding protein (Homo sapiens, UniProt P24387+Q13324); assay: activators of CRF receptor 2 with binding protein – uHTS hits, confirmation (AID 602473); format: functional; settings: read-out: EC50_Mean
T1 sequence (Q13324 whole entry): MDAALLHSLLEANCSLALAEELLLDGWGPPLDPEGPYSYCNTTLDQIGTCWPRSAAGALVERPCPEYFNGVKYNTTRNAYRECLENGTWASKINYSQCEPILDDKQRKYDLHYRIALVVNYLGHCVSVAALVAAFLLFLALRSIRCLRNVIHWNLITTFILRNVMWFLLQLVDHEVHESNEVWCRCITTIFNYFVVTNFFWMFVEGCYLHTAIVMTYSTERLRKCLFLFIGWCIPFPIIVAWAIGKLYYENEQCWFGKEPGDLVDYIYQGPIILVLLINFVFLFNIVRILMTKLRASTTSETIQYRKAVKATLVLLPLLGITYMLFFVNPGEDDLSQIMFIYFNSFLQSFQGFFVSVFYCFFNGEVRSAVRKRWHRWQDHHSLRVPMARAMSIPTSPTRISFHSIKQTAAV
T1 sequence (P24387 whole entry): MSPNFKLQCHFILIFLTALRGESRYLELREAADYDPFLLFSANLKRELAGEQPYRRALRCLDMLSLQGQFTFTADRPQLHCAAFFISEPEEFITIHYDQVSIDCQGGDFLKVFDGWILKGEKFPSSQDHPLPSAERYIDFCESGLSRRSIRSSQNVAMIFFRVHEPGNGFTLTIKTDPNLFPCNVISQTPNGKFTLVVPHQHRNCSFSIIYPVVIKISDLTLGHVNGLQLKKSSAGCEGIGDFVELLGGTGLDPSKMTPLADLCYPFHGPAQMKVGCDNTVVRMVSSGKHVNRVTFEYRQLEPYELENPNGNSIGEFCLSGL

[4] = molecular target: Sphingosine 1-phosphate receptor 2 (Homo sapiens, UniProt O95136); assay: Late-stage fluorescence-based dose-response cell-based counterscreen assay to identify agonists of the Sphingosine 1-Phosphate Receptor 3 (S1P3): Sphingosine 1-Phosphate Receptor 2 (S1P2) agonist assay.; format: functional
[5] = molecular target: T2, Sphingosine 1-phosphate receptor 4 (Homo sapiens, UniProt O95977); assay: Late-stage fluorescence-based dose-response cell-based counterscreen assay to identify agonists of the Sphingosine 1-Phosphate Receptor 3 (S1P3): Sphingosine 1-Phosphate Receptor 4 (S1P4) agonist assay.; format: functional
T2 sequence (O95977 whole entry): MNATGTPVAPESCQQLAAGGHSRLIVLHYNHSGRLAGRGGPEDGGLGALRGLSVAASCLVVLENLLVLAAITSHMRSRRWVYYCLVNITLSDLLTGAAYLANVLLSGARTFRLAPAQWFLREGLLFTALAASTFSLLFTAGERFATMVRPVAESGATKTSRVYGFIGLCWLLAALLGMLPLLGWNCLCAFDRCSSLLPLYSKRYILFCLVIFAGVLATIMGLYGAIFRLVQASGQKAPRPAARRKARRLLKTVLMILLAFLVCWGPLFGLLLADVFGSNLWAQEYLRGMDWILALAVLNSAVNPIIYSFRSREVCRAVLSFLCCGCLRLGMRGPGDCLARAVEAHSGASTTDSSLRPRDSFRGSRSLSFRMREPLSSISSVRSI

[6] = molecular target: Tyrosine-protein kinase ABL1 (Homo sapiens, UniProt P00519); format: functional
[7] = molecular target: Vascular endothelial growth factor receptor 2 (Homo sapiens, UniProt P35968); format: functional
[8] = molecular target: T3, DNA dC->dU-editing enzyme APOBEC-3A (Homo sapiens, UniProt P31941); assay: A3A deaminase inhibition for selectivity – biochemical, dose response (AID 504722); format: functional
[9] = molecular target: T4, DNA dC->dU-editing enzyme APOBEC-3G (Homo sapiens, UniProt Q9HC16); assay: Dose Response confirmation of small molecule APOBEC3G DNA Deaminase Inhibitors via a fluorescence-based single-stranded DNA deaminase assay. [Related pubchem assays (depositor defined):AID493012, AID493028]; format: functional
[10] = molecular target: T3, DNA dC->dU-editing enzyme APOBEC-3A; assay: SAR analysis of small molecule inhibitors of APOBEC3A DNA Deaminase via a fluorescence-based single-stranded DNA deaminase assay - Set 2.; format: functional; settings: read-out: IC50_Mean
[11] = molecular target: T4, DNA dC->dU-editing enzyme APOBEC-3G; assay: SAR analysis of small molecule inhibitors of APOBEC3G DNA Deaminase via a fluorescence-based single-stranded DNA deaminase assay - Set 2.; format: functional; settings: read-out: IC50_Mean
[12] = molecular target: T5, Mitochondrial peptide methionine sulfoxide reductase (Bos taurus, UniProt P54149); assay: Absorbance-based biochemical high throughput dose response assay for activators of Methionine sulfoxide reductase A (MsrA).; format: functional
T5 sequence (P54149 whole entry): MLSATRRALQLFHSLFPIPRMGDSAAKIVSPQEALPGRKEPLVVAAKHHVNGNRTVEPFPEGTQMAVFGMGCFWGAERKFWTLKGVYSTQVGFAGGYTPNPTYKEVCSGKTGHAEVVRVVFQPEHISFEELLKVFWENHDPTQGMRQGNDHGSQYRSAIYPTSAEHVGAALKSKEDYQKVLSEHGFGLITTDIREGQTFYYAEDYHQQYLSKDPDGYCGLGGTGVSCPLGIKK

[13] = molecular target: T4, DNA dC->dU-editing enzyme APOBEC-3G; assay: inhibition of APOBEC3G ssDNA deamination – biochemical, fluorescence, single-stranded DNA substrate, SAR follow-up (AID 602136); format: functional; settings: read-out: IC50_Mean
[14] = molecular target: T3, DNA dC->dU-editing enzyme APOBEC-3A; assay: SAR analysis of small molecule inhibitors of APOBEC3A DNA Deaminase via a fluorescence-based single-stranded DNA deaminase assay.; format: functional; settings: read-out: IC50_Mean

T4 sequence (Q9HC16 whole entry): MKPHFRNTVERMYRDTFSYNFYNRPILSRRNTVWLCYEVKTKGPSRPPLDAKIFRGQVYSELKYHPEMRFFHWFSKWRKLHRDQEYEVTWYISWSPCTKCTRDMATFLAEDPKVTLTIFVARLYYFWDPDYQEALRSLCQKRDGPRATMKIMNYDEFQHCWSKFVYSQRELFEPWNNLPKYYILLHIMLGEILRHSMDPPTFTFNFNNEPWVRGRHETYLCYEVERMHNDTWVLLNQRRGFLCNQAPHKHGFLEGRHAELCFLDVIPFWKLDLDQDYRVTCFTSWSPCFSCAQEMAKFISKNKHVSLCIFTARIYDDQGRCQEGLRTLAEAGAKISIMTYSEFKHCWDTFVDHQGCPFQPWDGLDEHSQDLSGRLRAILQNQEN
T3 sequence (P31941 whole entry): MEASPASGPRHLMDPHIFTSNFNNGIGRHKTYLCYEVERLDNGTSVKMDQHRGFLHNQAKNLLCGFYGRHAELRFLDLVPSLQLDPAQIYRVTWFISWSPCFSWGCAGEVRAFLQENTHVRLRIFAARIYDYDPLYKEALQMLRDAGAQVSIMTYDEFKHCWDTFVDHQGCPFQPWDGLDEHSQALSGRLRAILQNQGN
Chain of Latent membrane protein 1 (P03230 whole entry): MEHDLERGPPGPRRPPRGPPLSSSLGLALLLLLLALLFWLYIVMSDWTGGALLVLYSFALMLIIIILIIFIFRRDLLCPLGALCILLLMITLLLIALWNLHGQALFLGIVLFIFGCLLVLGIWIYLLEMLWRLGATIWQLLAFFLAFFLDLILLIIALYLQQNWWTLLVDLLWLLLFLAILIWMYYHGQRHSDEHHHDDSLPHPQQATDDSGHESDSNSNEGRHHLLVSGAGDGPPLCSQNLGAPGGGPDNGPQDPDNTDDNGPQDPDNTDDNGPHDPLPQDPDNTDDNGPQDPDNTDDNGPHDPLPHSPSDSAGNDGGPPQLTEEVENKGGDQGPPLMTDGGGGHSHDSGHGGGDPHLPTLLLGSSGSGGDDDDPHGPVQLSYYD
Chain of Vascular endothelial growth factor receptor 2 (P35968 whole entry): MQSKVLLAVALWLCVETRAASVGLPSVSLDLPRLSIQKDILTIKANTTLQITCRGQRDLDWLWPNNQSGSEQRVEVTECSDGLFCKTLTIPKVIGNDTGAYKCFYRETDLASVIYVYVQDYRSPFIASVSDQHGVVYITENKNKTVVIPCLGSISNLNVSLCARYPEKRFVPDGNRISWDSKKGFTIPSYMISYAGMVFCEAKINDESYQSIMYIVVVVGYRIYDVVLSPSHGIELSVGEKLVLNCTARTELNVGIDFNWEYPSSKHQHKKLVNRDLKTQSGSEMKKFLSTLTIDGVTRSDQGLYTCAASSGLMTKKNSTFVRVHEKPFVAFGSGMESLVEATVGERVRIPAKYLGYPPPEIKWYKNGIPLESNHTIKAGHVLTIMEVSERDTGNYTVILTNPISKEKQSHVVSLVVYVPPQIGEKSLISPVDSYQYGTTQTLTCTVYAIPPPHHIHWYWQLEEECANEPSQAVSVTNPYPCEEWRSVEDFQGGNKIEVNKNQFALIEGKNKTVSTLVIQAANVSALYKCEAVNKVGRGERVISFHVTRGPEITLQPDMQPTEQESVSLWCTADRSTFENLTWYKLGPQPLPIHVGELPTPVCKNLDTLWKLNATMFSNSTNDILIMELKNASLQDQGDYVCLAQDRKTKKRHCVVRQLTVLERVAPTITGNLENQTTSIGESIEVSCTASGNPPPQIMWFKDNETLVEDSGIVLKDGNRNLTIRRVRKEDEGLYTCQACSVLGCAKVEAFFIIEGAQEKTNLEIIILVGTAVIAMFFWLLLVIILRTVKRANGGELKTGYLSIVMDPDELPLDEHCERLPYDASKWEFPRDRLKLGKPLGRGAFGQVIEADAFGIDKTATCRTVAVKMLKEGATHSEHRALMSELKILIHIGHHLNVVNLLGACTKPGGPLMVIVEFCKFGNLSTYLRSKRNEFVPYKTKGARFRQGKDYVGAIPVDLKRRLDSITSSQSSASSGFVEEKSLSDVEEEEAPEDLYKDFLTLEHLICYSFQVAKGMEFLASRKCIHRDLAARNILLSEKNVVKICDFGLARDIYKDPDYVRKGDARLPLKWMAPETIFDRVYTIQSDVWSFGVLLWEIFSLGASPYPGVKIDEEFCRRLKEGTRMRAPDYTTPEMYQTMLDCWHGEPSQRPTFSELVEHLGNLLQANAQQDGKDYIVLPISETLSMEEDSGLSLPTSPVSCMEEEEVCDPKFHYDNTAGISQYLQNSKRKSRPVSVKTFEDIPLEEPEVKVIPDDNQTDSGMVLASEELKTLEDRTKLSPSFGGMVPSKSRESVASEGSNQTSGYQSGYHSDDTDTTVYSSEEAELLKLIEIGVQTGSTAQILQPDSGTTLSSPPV
Chain of Tyrosine-protein kinase ABL1 (P00519 whole entry): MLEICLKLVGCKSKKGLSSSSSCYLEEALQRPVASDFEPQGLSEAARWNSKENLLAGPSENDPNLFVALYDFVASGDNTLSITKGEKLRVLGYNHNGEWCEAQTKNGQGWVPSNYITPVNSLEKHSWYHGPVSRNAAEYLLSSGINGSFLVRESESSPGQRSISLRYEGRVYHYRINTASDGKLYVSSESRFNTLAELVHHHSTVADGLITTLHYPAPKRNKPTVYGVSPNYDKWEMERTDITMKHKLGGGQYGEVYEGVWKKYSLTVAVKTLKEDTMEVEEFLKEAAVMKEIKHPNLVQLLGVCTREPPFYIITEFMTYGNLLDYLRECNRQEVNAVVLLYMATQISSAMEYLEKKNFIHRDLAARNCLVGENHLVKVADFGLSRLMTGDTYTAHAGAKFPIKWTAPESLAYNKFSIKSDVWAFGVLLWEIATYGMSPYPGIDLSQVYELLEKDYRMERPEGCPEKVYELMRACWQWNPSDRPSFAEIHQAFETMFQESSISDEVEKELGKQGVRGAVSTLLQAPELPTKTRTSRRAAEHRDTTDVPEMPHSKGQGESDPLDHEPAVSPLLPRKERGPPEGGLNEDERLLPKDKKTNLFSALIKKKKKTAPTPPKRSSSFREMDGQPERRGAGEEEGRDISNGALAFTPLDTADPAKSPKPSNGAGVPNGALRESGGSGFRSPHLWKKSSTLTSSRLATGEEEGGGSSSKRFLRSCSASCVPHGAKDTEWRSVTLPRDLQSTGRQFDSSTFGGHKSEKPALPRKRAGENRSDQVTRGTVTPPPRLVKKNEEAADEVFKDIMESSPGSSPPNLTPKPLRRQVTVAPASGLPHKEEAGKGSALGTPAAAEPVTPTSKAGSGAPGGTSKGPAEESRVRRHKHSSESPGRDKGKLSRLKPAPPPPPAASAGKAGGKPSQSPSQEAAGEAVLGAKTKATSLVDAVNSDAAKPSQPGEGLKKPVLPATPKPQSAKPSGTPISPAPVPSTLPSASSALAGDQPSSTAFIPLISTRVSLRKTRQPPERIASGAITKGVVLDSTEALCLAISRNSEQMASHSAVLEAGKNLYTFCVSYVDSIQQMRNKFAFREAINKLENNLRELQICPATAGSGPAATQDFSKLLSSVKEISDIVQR
Chain of Sphingosine 1-phosphate receptor 2 (O95136 whole entry): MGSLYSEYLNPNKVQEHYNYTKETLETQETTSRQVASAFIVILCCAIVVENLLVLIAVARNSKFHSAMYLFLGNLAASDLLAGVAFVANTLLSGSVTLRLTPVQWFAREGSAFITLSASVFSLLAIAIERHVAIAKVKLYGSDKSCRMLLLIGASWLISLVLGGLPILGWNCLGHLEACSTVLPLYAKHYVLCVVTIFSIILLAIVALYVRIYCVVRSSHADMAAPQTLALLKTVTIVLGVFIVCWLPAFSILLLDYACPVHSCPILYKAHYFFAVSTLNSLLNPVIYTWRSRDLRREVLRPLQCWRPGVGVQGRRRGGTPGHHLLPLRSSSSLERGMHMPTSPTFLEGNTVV

Q: For `CC(C)(C)c1ccc(C(=O)N2CCC(=O)N(C(CO)Cc3ccccc3)CC2)cc1` (centres undefined), which AC50 [1] is on record?
A: The AC50 was 173 µM (active).

Q: And the AC50 [2]?
A: The AC50 was 347 µM (active).

Q: And the EC50 [3]?
A: The EC50 was > 53 µM (inactive).

Q: Which EC50 [4] does the source give for `COc1ccc(-c2cc(C(=O)N(C3CCCCC3)C3CCCCC3)no2)cc1OC` here?
A: Its EC50 is > 50 µM (inactive).

Q: And the EC50 [5]?
A: The EC50 was > 50 µM (inactive).

Q: Which Ki [6] does the source give for `N#Cc1cnc2c(Br)cnn2c1N` here?
A: Its Ki is 79.4 µM (active).

Q: What about the Ki [7] of the same compound?
A: Its Ki is 100 µM (active).

Q: With `Sc1nnc(NCCc2ccccc2)s1` as the compound, how does the IC50 [8] read?
A: Its IC50 is > 100 µM (inactive).

Q: What about the IC50 [9] of the same compound?
A: The IC50 was 1.2 µM (active).

Q: What about the IC50 [10] of the same compound?
A: Its IC50 is > 99 µM (inactive).

Q: And the IC50 [11]?
A: The IC50 was 0.695 µM (active).

Q: And the EC50 [12]?
A: Its EC50 is > 104 µM (inactive).

Q: What about the IC50 [13] of the same compound?
A: The IC50 was 0.835 µM (active).

Q: What about the IC50 [14] of the same compound?
A: The IC50 was > 99 µM (inactive).

— ChEMBL document CHEMBL1201862, “PubChem BioAssay data set” (2004)
